US8410020B2, “Fungicidal composition comprising a pyridylethylbenzamide derivative and a compound capable of inhibiting the methionine biosynthesis” (Bayer Cropscience AG, priority 2004, dated 2013)

How the values were obtained:
Format in all cases: in vivo
[1] = test system: Erysiphe graminis f. sp. hordei; test: Efficacy against Erysiphe graminis f. sp. hordei on barley plants (preventive spray, 24 h before contamination); settings: dose 500 g/ha, grading 7 to 14 days after contamination
Description: (§1) The active ingredients tested are prepared by potter homogenisation in a mixture of acetone/tween/water. This suspension is then diluted with water to obtain the desired active material concentration.
Barley plants (Express variety) in starter cups, sown on 50/50 peat soil-pozzolana substrate and grown at 12° C., are treated at the 1-leaf stage (10 cm tall) by spraying with the aqueous suspension described above.
(§2) Plants, used as controls, are treated with an aqueous solution not containing the active material.
After 24 hours, the plants are contaminated by dusting them with Erysiphe graminis f. sp. hordei spores, the dusting being carried out using diseased plants.
(§3) Grading is carried out 7 to 14 days after the contamination, in comparison with the control plants.

[2] = test system: Erysiphe graminis f. sp. tritici; test: Efficacy against Erysiphe graminis on wheat plants (preventive spray, 24 h before contamination); settings: grading 7 to 14 days after contamination
Description: as §1
Wheat plants (Audace variety) in starter cups, sown on 50/50 peat soil-pozzolana substrate and grown at 12° C., are treated at the 1-leaf stage (10 cm tall) by spraying with the aqueous suspension described above.
as §2
After 24 hours, the plants are contaminated by dusting them with Erysiphe graminis f. sp. tritici spores, the dusting being carried out using diseased plants.
as §3

Botrytis cinerea = test: Efficacy against Botrytis cinerea on gherkin plants (preventive spray, 24 h before contamination); settings: grading 5 to 7 days after contamination
Description: The formulated (concentrated suspension) compounds are diluted with water to obtain the desired active material concentration Gherkin plants (Petit vert de Paris variety) in starter cups, sown on a 50/50 peat soil-pozzolana substrate and grown at 18-20° C., are treated at the cotyledon Z11 stage by spraying with the aqueous suspension described above. Plants, used as controls, are treated with an aqueous solution not containing the active material.
After 24 hours, the plants are contaminated by depositing drops of an aqueous suspension of Botrytis cinerea spores (150,000 spores per ml) on upper surface of the leaves. The spores are collected from a 15-day-old culture and are suspended in a nutrient solution composed of: • 20 g/L of gelatine • 50 g/L of cane sugar • 2 g/L of NH4NO3 • 1 g/L of KH2PO4
The contaminated gherkin plants are settled for 5/7 days in a climatic room at 15-11° C. (day/night) and at 80% relative humidity. Grading (% of efficacy) is carried out 5 to 7 days after the contamination, in comparison with the control plants.

## O=C(NCCc1ncc(C(F)(F)F)cc1Cl)c1ccccc1C(F)(F)F [Compound 1, N-{2-[3-chloro-5-(trifluoromethyl)-2-pyridinyl]ethyl}-2-trifluoromethylbenzamide]
[1]
  % Efficacy: 40%
[2]; dose 500 g/ha
  % Efficacy: 35%
Botrytis cinerea; dose 37 ppm
  % Efficacy: 45%

## Cc1cc(C2CC2)nc(Nc2ccccc2)n1 [Cyprodinil, cyprodinil]
[2]; dose 31.2 g/ha
  % Efficacy: 0%

## CC#Cc1cc(C)nc(Nc2ccccc2)n1 [Mepanipyrim, mepanipyrim]
[1]
  % Efficacy: 0%

## Cc1cc(C)nc(Nc2ccccc2)n1 [Pyrimethanil, pyrimethanil]
Botrytis cinerea; dose 12.3 ppm
  % Efficacy: 90%
